In PMC12736255, “Reinvestigating Pyrrol-2-One-Based Compounds: From Antimicrobial Agents to Promising Antitumor Candidates” (Pharmaceuticals, 2025):

Experiments:
U-118MG = assay: CellTiter-Glo 2.0 cytotoxicity, glioblastoma; format: cell-based, human; conditions: 50 µM, 24 h
Description: Cytotoxicity of compounds was assessed using the CellTiter-Glo® 2.0 Assay (Promega, Madison, WI, USA) on human gingival fibroblasts (HGF), osteosarcoma (HOS and MG-63) and glioblastoma (LN-229 and U-118MG) cells, according to the manufacturer’s instructions. HGF, HOS, MG-63 and U-118MG cells were purchased from Cytion GmbH, Eppelheim, Germany, and LN-229 (CRL-2611) from the American Type Culture Collection (ATCC), Manassas, VA, USA. Cells were seeded (50,000 cells/mL—HGF, 100,000 cells/mL—tumor cells) into 96-well opaque white tissue culture-treated plates and allowed to adhere overnight in αMEM medium with 10% fetal bovine serum and 1% antibiotic-antimycotic (all from PAN—Biotech GmbH, Aidenbach, Germany). Cells were incubated with compounds (10 or 50 µM) for 24 h, then CellTiter-Glo® reagent was added and luminescence was recorded using a FLUOstar® Omega microplate reader (BMG LABTECH, Ortenberg, Germany). The experiments were carried out in triplicate, and the viability of treated cells was expressed as a percentage of the viability of control cells (untreated). Data were represented as means ± standard deviations. Stock solutions of compounds were prepared in DMSO, then diluted in complete cell culture media. […] Data were analyzed with independent two-tailed (Student’s) t-test, considering p < 0.05 statistically significant.

[1] = test system: Gram-positive and Gram-negative bacteria; parameters: method as in PMID 38398524; conditions: cited from earlier work

Compound: O=C1C(Nc2ccc(I)cc2)=CC(c2ccc(O)cc2)N1c1ccc(I)cc1 (centres unmarked) [3g]
- cytotoxicity (activity in words) (U-118MG): moderate activity
- antibacterial activity (in words) [1]: highest antibacterial activity
